Values quoted from earlier work in US20130143845A1, “VITAMIN D COMPOUNDS AND METHODS FOR ENHANCING MUSCLE STRENGTH, AND PREVENTION AND TREATMENT OF DISEASE IN HUMAN BEINGS” (priority 2011, published 2013).
Read-outs that look alike come from different tables or passages of the source.

Settings: in circulation

C=C1/C(=C\C=C2/CCC[C@]3(C)[C@@H]([C@H](C)CCCC(C)(C)O)CC[C@@H]23)C[C@@H](O)C[C@@H]1O [1,25(OH)2D3, 1α,25-dihydroxyvitamin D3]
half-life of 1,25(OH)2D3 (prolonged by the invention (D3FACCPG), Lichtmann, personal communication): approximately 12 hours | half-life of 1,25(OH)2D3 (without the invention (Holick, 2003)): approximately 4 hours
